Laboratory results taken from PubChem BioAssay AID256 (DTP/NCI, 2004).
Several values for one entry are separate records, joined by “and”; a condition that tells them apart may be missing. Equal entries are not always repeated. Inconclusive results and toxic doses are left out. The calls were made as follows: active = survival T/C of 150% or more; inactive = T/C below 125% in these data.

System: CD2F1 mice, L1210 leukemia ip, survival T/C
Assay: NCI In Vivo Anticancer Drug Screen. Data for tumor model L1210 Leukemia (intraperitoneal) in CD2F1 (CDF1) mice
Settings: endpoint: mean survival time, higher = longer survival
How it was run: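 Ratio T/C, where T is the treated-group value and C the vehicle-dosed control value, from mice implanted with a transplantable tumor.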

[1] = dose: 100.0 mg/kg/injection, schedule: Q04DX003 (ip), vehicle: saline with Tween-80
[2] = dose: 200.0 mg/kg/injection, schedule: Q04DX003 (ip), vehicle: saline with Tween-80
[3] = dose: 400.0 mg/kg/injection, schedule: Q04DX003 (ip), vehicle: saline with Tween-80
[4] = dose: 100.0 mg/kg/injection, schedule: Q01DX009 (ip), vehicle: saline with Tween-80
[5] = dose: 200.0 mg/kg/injection, schedule: Q01DX009 (ip), vehicle: saline with Tween-80
[6] = dose: 400.0 mg/kg/injection, schedule: Q01DX009 (ip), vehicle: saline with Tween-80
[7] = dose: 25.0 mg/kg/injection, schedule: Q04DX002 (ip), vehicle: saline with Tween-80
[8] = dose: 50.0 mg/kg/injection, schedule: Q04DX002 (ip), vehicle: saline with Tween-80
[9] = dose: 100.0 mg/kg/injection, schedule: Q04DX002 (ip), vehicle: saline with Tween-80
[10] = dose: 100.0 mg/kg/injection, schedule: Q04DX003 (ip), vehicle: saline
[11] = dose: 200.0 mg/kg/injection, schedule: Q04DX003 (ip), vehicle: saline
[12] = dose: 400.0 mg/kg/injection, schedule: Q04DX003 (ip), vehicle: saline
[13] = dose: 25.0 mg/kg/injection, schedule: Q01DX009 (ip), vehicle: saline with Tween-80
[14] = dose: 50.0 mg/kg/injection, schedule: Q01DX009 (ip), vehicle: saline with Tween-80
[15] = dose: 50.0 mg/kg/injection, schedule: Q01DX009 (ip), vehicle: Klucel (hydroxypropylcellulose) (HPC)

Measured: T/C

O=C(CCCCCNC(=O)OCc1ccccc1)Oc1ccc([N+](=O)[O-])cc1
inactive: [1] 101 % of control | [2] 96 % of control | [3] 94 % of control

CC(=O)Nc1nc(Br)c2ccccc2c1-c1ccc(N(CCOS(=O)(=O)c2ccc(C)cc2)CCOS(=O)(=O)c2ccc(C)cc2)cc1
inactive: dose: 12.5 mg/kg/injection, schedule: Q04DX003 (ip), vehicle: DMSO 98 % of control | dose: 25.0 mg/kg/injection, schedule: Q04DX003 (ip), vehicle: DMSO 102 % of control | dose: 50.0 mg/kg/injection, schedule: Q04DX003 (ip), vehicle: DMSO 102 % of control | dose: 100.0 mg/kg/injection, schedule: Q04DX003 (ip), vehicle: DMSO 105 % of control

CCOC(=O)CN(C=O)C1c2ccccc2-c2ccccc21
inactive: [1] 99 % of control | [2] 92 % of control | [3] 97 % of control

C=C1C(=O)OC2CC(C)C3C(O)C(O)C(O)C3(C)CC12 (configuration not stated)
inactive: [1] 102 % of control | [2] 104 % of control

CN(C)c1ccc(CN2CCCN(Cc3ccc(N(C)C)cc3)C2c2ccncc2)cc1
inactive: [4] 94 % of control | [1] 104 % of control | [5] 95 % of control | [2] 103 % of control | [6] 95 % of control | [3] 103 % of control

COc1ccc(/C=N/O)cc1
inactive: dose: 75.0 mg/kg/injection, schedule: Q01DX001 (ip), vehicle: saline 102 % of control | dose: 150.0 mg/kg/injection, schedule: Q01DX001 (ip), vehicle: saline 100 % of control | dose: 300.0 mg/kg/injection, schedule: Q01DX001 (ip), vehicle: saline 101 % of control

BrC1=C(c2ccccc2)C2CCCCC2C1(Br)c1ccccc1 (configuration not stated)
inactive: dose: 100.0 mg/kg/injection, schedule: Q01DX001 (ip), vehicle: Klucel (hydroxypropylcellulose) (HPC) 98 % of control | dose: 200.0 mg/kg/injection, schedule: Q01DX001 (ip), vehicle: Klucel (hydroxypropylcellulose) (HPC) 102 % of control | dose: 400.0 mg/kg/injection, schedule: Q01DX001 (ip), vehicle: Klucel (hydroxypropylcellulose) (HPC) 102 % of control

CS(=O)(=O)OC(OS(C)(=O)=O)(OS(C)(=O)=O)OS(C)(=O)=O
inactive: [1] 111 % of control | [2] 105 % of control | [3] 105 % of control

O=[N+]([O-])/C=C\c1ccc2c(c1)OCO2
inactive: [1] 101 % of control | [2] 93 % of control | [3] 90 % of control

Cn1c(=O)c2[nH]c(-c3ccc(Cl)cc3)nc2n(C)c1=O
inactive: dose: 12.5 mg/kg/injection, schedule: Q01DX005 (ip), vehicle: other 89 % of control | dose: 25.0 mg/kg/injection, schedule: Q01DX005 (ip), vehicle: other 89 % of control | dose: 50.0 mg/kg/injection, schedule: Q01DX005 (ip), vehicle: other 93 % of control | dose: 100.0 mg/kg/injection, schedule: Q01DX005 (ip), vehicle: other 89 % of control | dose: 200.0 mg/kg/injection, schedule: Q01DX005 (ip), vehicle: other 95 % of control

CCOc1ccc(OCC)c(NC(=O)Nc2cccc(Cl)c2)c1
inactive: [7] 92 % of control | [8] 92 % of control | [9] 88 % of control

C/C(=N/O)c1ccc(F)cc1
inactive: [4] 100 % of control | [1] 94 % of control and 97 % of control | [5] 93 % of control and 95 % of control | [2] 94 % of control | [6] 94 % of control and 102 % of control | [3] 89 % of control and 96 % of control

C1CCC(CCC2CCCC[N-]2)[N-]C1.[I][Co][I] (configuration not stated)
inactive: dose: 25.0 mg/kg/injection, schedule: Q01DX001 (ip), vehicle: saline with Tween-80 95 % of control | dose: 50.0 mg/kg/injection, schedule: Q01DX001 (ip), vehicle: saline with Tween-80 86 % of control | dose: 100.0 mg/kg/injection, schedule: Q01DX001 (ip), vehicle: saline with Tween-80 123 % of control | dose: 100.0 mg/kg/injection, schedule: Q01DX001 (ip), vehicle: saline 103 % of control

NC1CONC1=O (configuration not stated)
inactive: [10] 94 % of control | [11] 97 % of control | [12] 96 % of control

O=C1OC2CC3CCC2C13 (configuration not stated)
inactive: dose: 6.25 mg/kg/injection, schedule: Q01DX009 (ip), vehicle: saline 101 % of control | dose: 12.5 mg/kg/injection, schedule: Q01DX009 (ip), vehicle: saline 101 % of control | dose: 25.0 mg/kg/injection, schedule: Q01DX009 (ip), vehicle: saline 95 % of control

C=CC1CC(=O)N1Cc1ccccc1 (configuration not stated)
inactive: [1] 97 % of control | [2] 92 % of control | [3] 92 % of control

COC1(OC)C2C=CC1CC2
inactive: dose: 12.5 mg/kg/injection, schedule: Q01DX009 (ip), vehicle: saline with Tween-80 105 % of control | [13] 100 % of control | [14] 109 % of control | [4] 103 % of control | [5] 103 % of control | [6] 114 % of control

Oc1ccc(/C=N/NC(=S)NN2CCOCC2)nc1
inactive: dose: 3.12 mg/kg/injection, schedule: Q01DX009 (ip), vehicle: Klucel (hydroxypropylcellulose) (HPC) 103 % of control | dose: 6.25 mg/kg/injection, schedule: Q01DX009 (ip), vehicle: Klucel (hydroxypropylcellulose) (HPC) 104 % of control | dose: 12.5 mg/kg/injection, schedule: Q01DX009 (ip), vehicle: Klucel (hydroxypropylcellulose) (HPC) 101 % of control | dose: 25.0 mg/kg/injection, schedule: Q01DX009 (ip), vehicle: Klucel (hydroxypropylcellulose) (HPC) 121 % of control | [7] 101 % of control | [15] 95 % of control | [9] 91 % of control and 94 % of control

COC(=N)CC(=O)C(C)(C)C
inactive: dose: 100.0 mg/kg/injection, schedule: Q01DX001 (ip), vehicle: other 102 % of control | dose: 200.0 mg/kg/injection, schedule: Q01DX001 (ip), vehicle: other 97 % of control | dose: 400.0 mg/kg/injection, schedule: Q01DX001 (ip), vehicle: other 97 % of control

CC(=O)Oc1ccc2c3c(cccc13)CC2
inactive: [1] 98 % of control | [2] 98 % of control | [3] 98 % of control

Nc1ccc2ccccc2c1N=Nc1ccccc1
inactive: [15] 106 % of control | dose: 100.0 mg/kg/injection, schedule: Q01DX009 (ip), vehicle: Klucel (hydroxypropylcellulose) (HPC) 112 % of control | dose: 200.0 mg/kg/injection, schedule: Q01DX009 (ip), vehicle: Klucel (hydroxypropylcellulose) (HPC) 113 % of control | dose: 400.0 mg/kg/injection, schedule: Q01DX009 (ip), vehicle: Klucel (hydroxypropylcellulose) (HPC) 103 % of control

CC(C)(C)OCC(N)C(=O)OC(C)(C)C (configuration not stated)
inactive: [10] 93 % of control | [11] 103 % of control | [12] 96 % of control

Cc1cc2sccc2cn1
inactive: [13] 100 % of control | [14] 98 % of control | [4] 98 % of control | [1] 90 % of control

CCC(C)C1NC(=O)C(NC(=O)c2c3nc4c(C(=O)NC5C(=O)NC(C(C)CC)C(=O)N6CCCC6C(=O)N(C)CC(=O)N(C)C(C(C)C)C(=O)OC5C)cc(N)c(C)c4oc-3c(C)c(=O)c2N)C(C)OC(=O)C(C(C)C)N(C)C(=O)CN(C)C(=O)C2CCCN2C1=O (configuration not stated)
inactive: dose: 25.0 micrograms/kg/injection, schedule: Q01DX009 (ip), vehicle: water 116 % of control | dose: 50.0 micrograms/kg/injection, schedule: Q01DX009 (ip), vehicle: water 121 % of control

CC(=O)C(CNCC(=O)O)(CNCC(=O)O)C(C)=O
inactive: [7] 90 % of control | [8] 94 % of control | [9] 94 % of control
